# Laboratory results published in PubChem BioAssay AID330 (DTP/NCI, 2004).
# “And” between values parts separate entries of the source, which are not always exact repeats. Equal entries are not always repeated. Inconclusive results and toxic doses are left out. Square brackets hold non-standard residues; d marks the D form. Peptide text beside a SMILES is read from it. * marks the point of attachment. Cbz = O=C(OCc1ccccc1)*; Nva = CCC[CH](N)C(=O)O
# Tested on: P388 leukemia ip, CD2F1 mice, survival T/C
# Experiment: NCI In Vivo Anticancer Drug Screen. Data for tumor model P388 Leukemia (intraperitoneal) in CD2F1 (CDF1) mice
# Settings: endpoint: median survival time, higher = longer survival
# Method in brief: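 Mice carrying the transplanted tumor received test compound or vehicle. Survival was recorded in each group, and the value is the treated-group measurement divided by that of the vehicle-treated control group.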
# [1] = dose: 50.0 mg/kg/injection, schedule: Q01DX005 (ip), vehicle: Klucel (hydroxypropylcellulose) (HPC)
# [2] = dose: 100.0 mg/kg/injection, schedule: Q01DX005 (ip), vehicle: Klucel (hydroxypropylcellulose) (HPC)
# [3] = dose: 200.0 mg/kg/injection, schedule: Q01DX005 (ip), vehicle: Klucel (hydroxypropylcellulose) (HPC)
# [4] = dose: 50.0 mg/kg/injection, schedule: Q01DX009 (ip), vehicle: saline with Tween-80
# [5] = dose: 100.0 mg/kg/injection, schedule: Q01DX009 (ip), vehicle: saline with Tween-80
# [6] = dose: 200.0 mg/kg/injection, schedule: Q01DX009 (ip), vehicle: saline with Tween-80
# [7] = dose: 50.0 mg/kg/injection, schedule: Q01DX005 (ip), vehicle: saline with Tween-80
# [8] = dose: 100.0 mg/kg/injection, schedule: Q01DX005 (ip), vehicle: saline with Tween-80
# [9] = dose: 200.0 mg/kg/injection, schedule: Q01DX005 (ip), vehicle: saline with Tween-80
# [10] = dose: 100.0 mg/kg/injection, schedule: Q04DX003 (ip), vehicle: saline with Tween-80
# [11] = dose: 200.0 mg/kg/injection, schedule: Q04DX003 (ip), vehicle: saline with Tween-80
# [12] = dose: 400.0 mg/kg/injection, schedule: Q04DX003 (ip), vehicle: saline with Tween-80
# [13] = dose: 100.0 mg/kg/injection, schedule: Q04DX002 (ip), vehicle: saline with Tween-80
compound,measurement,setting,value
COc1c(C=O)c2c(c(OC)c1OC)-c1ccc(OC)c(=O)cc1[C@@H](NC(C)=O)CC2,T/C,"dose: 0.39 mg/kg/injection, schedule: Q01DX009 (ip), vehicle: Klucel (hydroxypropylcellulose) (HPC)",151 % of control
same,T/C,"dose: 0.78 mg/kg/injection, schedule: Q01DX009 (ip), vehicle: Klucel (hydroxypropylcellulose) (HPC)",154 % of control
same,T/C,"dose: 1.56 mg/kg/injection, schedule: Q01DX009 (ip), vehicle: Klucel (hydroxypropylcellulose) (HPC)",160 % of control and 175 % of control
same,T/C,"dose: 3.12 mg/kg/injection, schedule: Q01DX009 (ip), vehicle: Klucel (hydroxypropylcellulose) (HPC)",180 % of control and 194 % of control
same,T/C,"dose: 6.25 mg/kg/injection, schedule: Q01DX009 (ip), vehicle: Klucel (hydroxypropylcellulose) (HPC)",205 % of control
same,T/C,"dose: 12.5 mg/kg/injection, schedule: Q01DX009 (ip), vehicle: Klucel (hydroxypropylcellulose) (HPC)",102 % of control
CC1=NN(C(C)(C)C)[Si]2(C(C)(C)C)C1[Si]1(C(C)(C)C)C2C(C)=NN1C(C)(C)C (stereo not given),T/C,"dose: 25.0 mg/kg/injection, schedule: Q01DX005 (ip), vehicle: Klucel (hydroxypropylcellulose) (HPC)",92 % of control
same,T/C,[1],86 % of control
same,T/C,[2],90 % of control
same,T/C,[3],90 % of control
O=C(CN1CCNCC1)N1CCCC1,T/C,[1],106 % of control
same,T/C,[2],97 % of control
same,T/C,[3],98 % of control
CSc1nc(NCc2ccc(Cl)cc2)c2[nH]c(C)nc2n1,T/C,"dose: 0.2 mg/kg/injection, schedule: Q01DX009 (ip), vehicle: saline with Tween-80",98 % of control and 101 % of control
same,T/C,"dose: 0.39 mg/kg/injection, schedule: Q01DX009 (ip), vehicle: saline with Tween-80",101 % of control and 94 % of control
same,T/C,"dose: 0.78 mg/kg/injection, schedule: Q01DX009 (ip), vehicle: saline with Tween-80",106 % of control and 93 % of control
same,T/C,"dose: 1.56 mg/kg/injection, schedule: Q01DX009 (ip), vehicle: saline with Tween-80",99 % of control and 95 % of control
CC(=O)NC(CCC(C)(C)SCc1ccccc1)C(=O)O (stereo not given),T/C,[4],91 % of control
same,T/C,[5],94 % of control
same,T/C,[6],103 % of control
C=CCOc1ccccc1N/N=C(\Cl)C(=O)OCC,T/C,"dose: 12.5 mg/kg/injection, schedule: Q01DX009 (ip), vehicle: saline with Tween-80",124 % of control
same,T/C,"dose: 25.0 mg/kg/injection, schedule: Q01DX009 (ip), vehicle: saline with Tween-80",120 % of control
same,T/C,[4],121 % of control
CCOc1c(Br)cc(/C=C/[N+](=O)[O-])cc1OC,T/C,"dose: 3.75 mg/kg/injection, schedule: Q01DX005 (ip), vehicle: saline with Tween-80",103 % of control
same,T/C,"dose: 7.5 mg/kg/injection, schedule: Q01DX005 (ip), vehicle: saline with Tween-80",112 % of control and 116 % of control
same,T/C,"dose: 15.0 mg/kg/injection, schedule: Q01DX005 (ip), vehicle: saline with Tween-80",109 % of control and 120 % of control
same,T/C,"dose: 30.0 mg/kg/injection, schedule: Q01DX005 (ip), vehicle: saline with Tween-80",120 % of control
CN(NC(=O)CC(=O)NN(C)C(=S)c1ccccc1)C(=S)c1ccccc1,T/C,"dose: 12.5 mg/kg/injection, schedule: Q01DX009 (ip), vehicle: gum acacia",97 % of control
same,T/C,"dose: 25.0 mg/kg/injection, schedule: Q01DX009 (ip), vehicle: gum acacia",115 % of control
same,T/C,"dose: 50.0 mg/kg/injection, schedule: Q01DX009 (ip), vehicle: gum acacia",104 % of control
Cc1c([N+](=O)[O-])oc2cc3c(cc12)CCCC3,T/C,"dose: 60.0 mg/kg/injection, schedule: Q01DX005 (ip), vehicle: saline with Tween-80",91 % of control
same,T/C,"dose: 120.0 mg/kg/injection, schedule: Q01DX005 (ip), vehicle: saline with Tween-80",93 % of control
same,T/C,"dose: 240.0 mg/kg/injection, schedule: Q01DX005 (ip), vehicle: saline with Tween-80",94 % of control
Clc1ccc(/C=C/c2ccccn2)cc1,T/C,[7],91 % of control
same,T/C,[8],90 % of control
same,T/C,[9],91 % of control
CN(C)CCSC(=O)N1c2ccccc2C(C)(C)c2ccccc21,T/C,"dose: 50.0 mg/kg/injection, schedule: Q01DX009 (ip), vehicle: saline",102 % of control
same,T/C,"dose: 100.0 mg/kg/injection, schedule: Q01DX009 (ip), vehicle: saline",103 % of control
CC(=O)O[C@@H]1C[C@@]2(C)C(C)(C)C(=O)C=C[C@]2(C)[C@H]2CC[C@]3(C)C(=CC(=O)C3c3ccoc3)[C@]12C (stereo not given in full),T/C,"dose: 8.5 mg/kg/injection, schedule: Q01DX005 (ip), vehicle: Klucel (hydroxypropylcellulose) (HPC)",104 % of control
same,T/C,"dose: 17.0 mg/kg/injection, schedule: Q01DX005 (ip), vehicle: Klucel (hydroxypropylcellulose) (HPC)",96 % of control
same,T/C,"dose: 34.0 mg/kg/injection, schedule: Q01DX005 (ip), vehicle: Klucel (hydroxypropylcellulose) (HPC)",98 % of control
same,T/C,"dose: 68.0 mg/kg/injection, schedule: Q01DX005 (ip), vehicle: Klucel (hydroxypropylcellulose) (HPC)",92 % of control
same,T/C,"dose: 136.0 mg/kg/injection, schedule: Q01DX005 (ip), vehicle: Klucel (hydroxypropylcellulose) (HPC)",92 % of control
Nc1ncnc2c1ncn2C1C=C(CO)C(O)C1O (stereo not given),T/C,"dose: 1.0 mg/kg/injection, schedule: Q01DX009 (ip), vehicle: saline",163 % of control
same,T/C,"dose: 2.0 mg/kg/injection, schedule: Q01DX009 (ip), vehicle: saline",163 % of control
same,T/C,"dose: 4.0 mg/kg/injection, schedule: Q01DX009 (ip), vehicle: Klucel (hydroxypropylcellulose) (HPC)",161 % of control
same,T/C,"dose: 4.0 mg/kg/injection, schedule: Q01DX009 (ip), vehicle: saline",156 % of control
same,T/C,"dose: 8.0 mg/kg/injection, schedule: Q01DX009 (ip), vehicle: Klucel (hydroxypropylcellulose) (HPC)",153 % of control and 161 % of control
same,T/C,"dose: 8.0 mg/kg/injection, schedule: Q01DX009 (ip), vehicle: saline",152 % of control and 182 % of control
C[C@H]1CC(=O)SC1=O,T/C,"dose: 25.0 mg/kg/injection, schedule: Q04DX002 (ip), vehicle: saline",100 % of control
same,T/C,"dose: 50.0 mg/kg/injection, schedule: Q04DX002 (ip), vehicle: saline",93 % of control
CCOC(=O)c1cn(C)c2c1C(O)=C(C(=O)OC)CC(=O)N2,T/C,[10],95 % of control
same,T/C,[11],100 % of control
same,T/C,[12],117 % of control
NC(Cc1ccc[se]1)C(=O)O (stereo not given),T/C,"dose: 6.25 mg/kg/injection, schedule: Q01DX005 (ip), vehicle: saline",105 % of control
same,T/C,"dose: 12.5 mg/kg/injection, schedule: Q01DX005 (ip), vehicle: saline",99 % of control
same,T/C,"dose: 25.0 mg/kg/injection, schedule: Q01DX005 (ip), vehicle: saline with Tween-80",103 % of control
same,T/C,"dose: 25.0 mg/kg/injection, schedule: Q01DX005 (ip), vehicle: saline",97 % of control
same,T/C,[7],94 % of control
CCCC(NC(=O)OCc1ccccc1)C(=O)NC(Cc1ccc(O)cc1)C(=O)O (stereo not given) (Cbz-[Nva]-Tyr-OH; configuration not given here),T/C,[1],102 % of control
same,T/C,[2],105 % of control
same,T/C,[3],94 % of control
N#Cc1c(NCc2ccccc2)nc2c3ccccc3ccn2c1=O,T/C,"dose: 25.0 mg/kg/injection, schedule: Q04DX002 (ip), vehicle: saline with Tween-80",95 % of control
same,T/C,"dose: 50.0 mg/kg/injection, schedule: Q04DX002 (ip), vehicle: saline with Tween-80",97 % of control
same,T/C,[13],95 % of control
CCCCCCN(CCCCCC)CC(O)c1cc(-c2ccccc2)nc2cc(Cl)ccc12 (stereo not given),T/C,[7],115 % of control
same,T/C,[8],103 % of control
same,T/C,[9],113 % of control
CCC(C)N(C)/N=N/c1nc[nH]c1C(N)=O (stereo not given),T/C,[5],115 % of control
same,T/C,[10],95 % of control
same,T/C,[6],105 % of control
same,T/C,[11],113 % of control
same,T/C,[12],113 % of control
CC(=O)/C=N/OC(=O)c1ccccc1,T/C,[13],104 % of control
same,T/C,"dose: 200.0 mg/kg/injection, schedule: Q04DX002 (ip), vehicle: saline with Tween-80",99 % of control
CN=C(C)c1ccc(N(C)C)cc1,T/C,"dose: 12.5 mg/kg/injection, schedule: Q04DX003 (ip), vehicle: saline with Tween-80",100 % of control
same,T/C,"dose: 25.0 mg/kg/injection, schedule: Q04DX003 (ip), vehicle: saline with Tween-80",100 % of control and 105 % of control
same,T/C,"dose: 50.0 mg/kg/injection, schedule: Q04DX003 (ip), vehicle: saline with Tween-80",110 % of control and 97 % of control
same,T/C,[10],105 % of control and 115 % of control
same,T/C,[11],100 % of control and 120 % of control
